# Assay results reported in patent publication US10240133B2, “ERK-derived peptides and uses thereof” (Yeda Research and Development Co. Ltd., priority 2013, dated 2019).
# Experiments:
# Elk1 = assay: Western blotting of Elk1 phosphorylation; assay type: cell-based; conditions: varied among the cell lines; EPE vs scrambled after TPA
# Method: (A) EPE peptide prevents ERK1/2-importin7 interaction. HeLa cells were serum starved (0.1%, 16 hours), pretreated with EPE peptide, scrambled peptide (10 μM, 2 hours) or DMSO, and then stimulated with TPA (250 nM, 15 min). ERK1 were precipitated with αgERK1 Ab; importin7 co-immunoprecipitated with ERK1 was detected by WB with αimportin7 Ab. […] T47D, HeLa, MDA-MB-231 and A2352 cells were serum starved (0.1%, 16 hours), pretreated with EPE peptide, scrambled peptide (10 μM, 2 hours) or DMSO control, and then stimulated with TPA (250 nM, indicated times). Cell extracts were subjected to Western blot analysis with the indicated Abs. (C) EPE peptide inhibits phosphorylation of c-Myc and Elk1 in B-Raf melanomas. A2158 and A2352 cells were treated with scrambled and EPE peptide for two hours and then stimulated with the indicated concentration of TPA for 30 min. […] (D) Quantification of some of the results in B and C. […]
# (i) Preparation of cellular extracts for Western Blotting: Cells were rinsed twice with ice-cold PBS and scraped into Radio-immunoprecipitation assay buffer (RIPA; 137 mM NaCl, 20 mM Tris (pH 7.4), 10% glycerol, 1% Triton X-100, 0.5% deoxycholate, 0.1% SDS, 2 mM EDTA, 1 mM PMSF, and 20 μM leupeptin). The extracts were centrifuged (20,000×g, 15 min, 4° C.), and the supernatants were further analyzed by Western blotting. […]
# [1] = mouse, in vivo
# Method: Female SCID mice (Harlan), 5-6 weeks of age, were inoculated s.c. into the flank region with 10^7 A2352 cells in 150 μl mixture of PBS with matrigel (2:1). Tumors were allowed to develop to the size of 5-6.5 mm in diameter (50˜110 mm^3 volume) and then the animals were randomly allocated to different treatment groups. The peptides (100 mM stock in DMSO), were diluted to the necessary concentration in PBS and boiled for 5 minutes. Then, DMSO, Scr or EPE peptides were administered by i.v. injection into the tail vein (150 μl/mouse, 3 times a week). Tumor dimensions were measured with a digital sliding caliper. Tumor volume was calculated using the formula: V=D1×D2×D3×π/6, where D1, D2, D3—represent the three mutually orthogonal growth diameters. To assess any signs of systemic toxicity, body weight was monitored, and recorded at the end of the experiment.
# Tumor xenografts, lungs, livers, kidneys and hearts of animals from different treatment groups were removed and subjected for histological analysis by staining of 5 μm paraffin embedded tissue slides with H&E, and examination by light microscope. […] Briefly, paraffin embedded blocks of tumors after different treatments were cut at 4 μm thickness and stained with ERK Abs, followed by second antibodies conjugated to peroxidase and DAB staining. Representative fields of each specimen were photographed at ×20 and ×40 magnifications.
# HeLa and T47D cells = assay: Proliferation assay (Methylene Blue), optimal administration conditions; assay type: cell-based; conditions: administered every 24 h in fresh medium
# Method: FIGS. 9A-9B illustrate the dose response of the EPE peptides on melanoma cells proliferation. LOXIMVI (FIG. 9A) and A2352 (FIG. 9B) melanoma cells were treated with the indicated doses of the EPE or Scr peptides. Presented as percent of viable cells at 72 h/initial cell number.
# All cells, except of MCF-10A, were seeded into 12-well cell plates in 1% FBS medium. MCF-10A cells were seeded in their complete medium diluted 5 fold. DMSO, Scr peptide, EPE peptide, or U0126 (final concentration of 10 μM each) were added to the appropriated wells four hours later. Every day medium was changed to fresh one containing the same agents. The number of viable cells was measured by Methylene Blue assay at 72 h after cell seeding. Shortly, cells were fixed with 4% Formaldehyde for 2 h at 23° C., washed once with 0.1M Borate Buffer pH 8.5 and stained with of 1% Methylene Blue in 0.1M Borate Buffer for 10 min. Color was extracted by adding 0.1 M HCl for 3 h at 23° C., and examined at 595 nm. For time course experiments, viable cells were measured at 0, 24, 48, 72 and 96 h after cell seeding. For dose response experiments we treaded the cells with 0.1, 1, 3, 10, or 30 μM of peptides for 72 h, as described above.
# B-Raf mutated melanomas = assay: Apoptosis (TUNEL, PARP-1 cleavage); assay type: cell-based; conditions: 24 h
# Method: (§1) FIGS. 5A-5D illustrate that the EPE peptide leads to apoptosis of B-Raf mutant cancer cells. (A) The EPE peptide affects the morphology of treated cells. The indicated cells were treated with either the EPE or Scr peptides, DMSO, or taxol for 72 h, and photographed by a light microscope. (B) The EPE peptide induces apoptosis in melanoma cells detected by TUNEL. The indicated cell lines were treated as in A for 24 h. Apoptosis was detected by TUNEL staining. Images were obtained by florescence microscope. (C) Quantification of B. The bar-graph represents percent of apoptotic cells calculated in 10 different fields. (D) The EPE peptide induces apoptosis of melanoma cells detected by PARP cleavage. The indicated cell lines were treated as in (A) for 24 h. Cell extracts were subjected to Western blotting with αPARP Ab.
# (§2) Cells were seeded on glass cover slips in a 12-wells plate at 25% confluence with medium containing 1% of FCS. Peptides (EPE or Scr), DMSO, or U0126 in a final concentration of 10 μM, were added after 4 h (considered as time “0”). TUNEL staining was performed at 24 h after the treatment according to manufacturer instruction (Roche Applied Science, Nutley, N.J., USA). Briefly, the medium was removed and cells were fixed with 3% of paraformaldehyde (1.5 h, 23° C.). Cells were rinsed twice with PBS and permeabilized with 0.1% Triton X-100 and 0.1% sodium citrate for 2 min on ice. Cells were rinsed twice with PBS and 28 μl of TUNEL reaction mixture (25 μl of TUNEL label, 2.5 μl of TUNEL enzyme and 0.1 mg/ml of DAPI) was added directly on top of the slide, cells were incubated for 16 h in humid box at 37° C. Cover slips were rinsed three times with PBS and mounted on microscope slides. The slides were dried and then subjected to image acquisition by a florescence microscope. For morphology assay, the cells were seeded at approximately 25% confluence in 6 cm plates with medium containing 1% FCS. Peptides (EPE and Scr) or DMSO or U0126 in a final concentration of 10 μM, were added after 4 h (considered to be time 0), 24 h and 48 h. Images were obtained by a light microscope (Olympus BX51) after 72 h.
# [2] = tested on: other cell lines examined; assay: Apoptosis (TUNEL, PARP-1 cleavage); assay type: cell-based
# Method: as §1, §2
sequence,measurement,setting,value
"GQLNHILGILGEPEQED (Synthetic peptide (EPE)) [EPE peptide, NTS-derived peptide with phosphomimetic EPE motif]",inhibition of phosphorylation of Elk1,Elk1,20-45%
same,"size or structure of the kidneys, livers and hearts",[1],did not affect
same,structure of the lungs,[1],not affected
same,optimal administration conditions (maximal effect compared to Scr peptide),HeLa and T47D cells,10 µM
same,"apoptosis (TUNEL, PARP-1)",B-Raf mutated melanomas,enhanced apoptosis
same,apoptosis relative to Taxol,B-Raf mutated melanomas,as strong as the apoptosis induced by Taxol
same,apoptosis / cell death,[2],No apoptosis was detected
